From patent US20240190880A1 (THE REGENTS OF THE UNIVERSITY OF MICHIGAN, priority 2021, published 2024)

Molecular target: T1, ER (Homo sapiens, UniProt P03372)
T1 construct: host or cells: T47D and MCF7 human breast cancer cells
T1 sequence (P03372 1-595): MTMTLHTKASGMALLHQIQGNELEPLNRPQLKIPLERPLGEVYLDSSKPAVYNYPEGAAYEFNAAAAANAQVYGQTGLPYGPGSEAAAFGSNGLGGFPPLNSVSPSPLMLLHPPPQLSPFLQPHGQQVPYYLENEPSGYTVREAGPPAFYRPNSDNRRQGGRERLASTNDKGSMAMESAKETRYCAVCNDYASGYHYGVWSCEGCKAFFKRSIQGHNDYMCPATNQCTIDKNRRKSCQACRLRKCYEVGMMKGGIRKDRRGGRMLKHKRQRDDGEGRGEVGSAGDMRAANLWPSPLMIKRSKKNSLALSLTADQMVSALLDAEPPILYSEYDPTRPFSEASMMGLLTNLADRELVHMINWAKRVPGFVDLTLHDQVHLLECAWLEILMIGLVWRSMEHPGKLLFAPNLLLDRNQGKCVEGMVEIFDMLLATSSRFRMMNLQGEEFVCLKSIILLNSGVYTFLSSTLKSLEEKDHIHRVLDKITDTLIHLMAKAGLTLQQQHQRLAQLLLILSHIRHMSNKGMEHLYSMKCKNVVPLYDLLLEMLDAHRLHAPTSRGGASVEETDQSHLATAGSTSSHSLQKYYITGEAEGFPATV
Test: ER degradation activity, in-cell western blot analysis in T47D cells
Format: cell-based
Settings: 16 hours, Table A does not say which cell line (T47D or MCF7), read-out: Potency (DC50)
Procedure, shortened: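 Human T47D cells (DMEM, 10% FBS) are dosed for 16 h with 0.5% DMSO final and probed with 680- and 800-dye secondary antibodies. Relative ER is calculated against vehicle and untreated wells.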

Compound | DC50 [µM]
C[C@@H]1Cc2c([nH]c3ccccc23)[C@@H](c2c(F)cc(N3CCC4(CC3)CN(CC3Cc5cc6c(cc5C3)C(=O)N(C3CCC(=O)NC3=O)C6=O)C4)cc2F)N1CC(F)F (stereo partly drawn) [E 232, 6-((7-(4-((1R,3R)-2-(2,2-difluoroethyl)-3-methyl-2,3,4,9-tetrahydro-1H-pyrido[3,4-b]indol-1-yl)-3,5-difluorophenyl)-2,7-diazaspiro[3.5]nonan-2-yl)methyl)-2-(2,6-dioxopiperidin-3-yl)-6,7-dihydrocyclopenta[f]isoindole-1,3(2H,5H)-dione] | > 0.1
C[C@@H]1Cc2c([nH]c3ccccc23)[C@@H](c2c(F)cc(N3CCC(C(=O)N4CCC(CN5Cc6cc7c(cc6C5)C(=O)N(C5CCC(=O)NC5=O)C7=O)CC4)CC3)cc2F)N1CC(F)F (stereo partly drawn) [E 233, 6-((1-(1-(4-((1R,3R)-2-(2,2-difluoroethyl)-3-methyl-2,3,4,9-tetrahydro-1H-pyrido[3,4-b]indol-1-yl)-3,5-difluorophenyl)piperidine-4-carbonyl)piperidin-4-yl)methyl)-2-(2,6-dioxopiperidin-3-yl)-6,7-dihydropyrrolo[3,4-f]isoindole-1,3(2H,5H)-dione] | > 0.1
C[C@@H]1Cc2c([nH]c3ccccc23)[C@@H](c2c(F)cc(N3CCC(C(=O)N4CC(N5Cc6cc7c(cc6C5)C(=O)N(C5CCC(=O)NC5=O)C7=O)C4)CC3)cc2F)N1CC(F)F (stereo partly drawn) [E 235, 6-(1-(1-(4-((1R,3R)-2-(2,2-difluoroethyl)-3-methyl-2,3,4,9-tetrahydro-1H-pyrido[3,4-b]indol-1-yl)-3,5-difluorophenyl)piperidine-4-carbonyl)azetidin-3-yl)-2-(2,6-dioxopiperidin-3-yl)-6,7-dihydropyrrolo[3,4-f]isoindole-1,3(2H,5H)-dione] | > 0.1
C[C@@H]1Cc2c([nH]c3ccccc23)[C@@H](c2c(F)cc(N3CC(C(=O)N4CCC(N5Cc6cc7c(cc6C5)C(=O)N(C5CCC(=O)NC5=O)C7=O)CC4)C3)cc2F)N1CC(F)F (stereo partly drawn) [E 236, 6-(1-(1-(4-((1R,3R)-2-(2,2-difluoroethyl)-3-methyl-2,3,4,9-tetrahydro-1H-pyrido[3,4-b]indol-1-yl)-3,5-difluorophenyl)azetidine-3-carbonyl)piperidin-4-yl)-2-(2,6-dioxopiperidin-3-yl)-6,7-dihydropyrrolo[3,4-f]isoindole-1,3(2H,5H)-dione] | > 0.1
C[C@@H]1Cc2c([nH]c3ccccc23)[C@@H](c2c(F)cc(N3CC(C(=O)N4CCC(CN5Cc6cc7c(cc6C5)C(=O)N(C5CCC(=O)NC5=O)C7=O)CC4)C3)cc2F)N1CC(F)F (stereo partly drawn) [E 237, 6-((1-(1-(4-((1R,3R)-2-(2,2-difluoroethyl)-3-methyl-2,3,4,9-tetrahydro-1H-pyrido[3,4-b]indol-1-yl)-3,5-difluorophenyl)azetidine-3-carbonyl)piperidin-4-yl)methyl)-2-(2,6-dioxopiperidin-3-yl)-6,7-dihydropyrrolo[3,4-f]isoindole-1,3(2H,5H)-dione] | > 0.1
C[C@@H]1Cc2c([nH]c3ccccc23)[C@@H](c2c(F)cc(N3CCC(CN4CCC(C(=O)N5Cc6cc7c(cc6C5)C(=O)N(C5CCC(=O)NC5=O)C7=O)CC4)CC3)cc2F)N1CC(F)F (stereo partly drawn) [E 238, 6-(1-((1-(4-((1R,3R)-2-(2,2-difluoroethyl)-3-methyl-2,3,4,9-tetrahydro-1H-pyrido[3,4-b]indol-1-yl)-3,5-difluorophenyl)piperidin-4-yl)methyl)piperidine-4-carbonyl)-2-(2,6-dioxopiperidin-3-yl)-6,7-dihydropyrrolo[3,4-f]isoindole-1,3(2H,5H)-dione] | > 0.1
C[C@@H]1Cc2c([nH]c3ccccc23)[C@@H](c2c(F)cc(N3CCC(CN4CC(C(=O)N5Cc6cc7c(cc6C5)C(=O)N(C5CCC(=O)NC5=O)C7=O)C4)CC3)cc2F)N1CC(F)F (stereo partly drawn) [E 239, 6-(1-((1-(4-((1R,3R)-2-(2,2-difluoroethyl)-3-methyl-2,3,4,9-tetrahydro-1H-pyrido[3,4-b]indol-1-yl)-3,5-difluorophenyl)piperidin-4-yl)methyl)azetidine-3-carbonyl)-2-(2,6-dioxopiperidin-3-yl)-6,7-dihydropyrrolo[3,4-f]isoindole-1,3(2H,5H)-dione] | > 0.1
O=C1CCC(N2C(=O)c3cc4c(cc3C2=O)CN(C2CCN(C(=O)C3CCN(c5ccc([C@@H]6c7ccc(O)cc7CC[C@@H]6c6ccccc6)cc5)CC3)CC2)C4)C(=O)N1 (stereo partly drawn) [E 240, 2-(2,6-dioxopiperidin-3-yl)-6-(1-(1-(4-((1R,2S)-6-hydroxy-2-phenyl-1,2,3,4-tetrahydronaphthalen-1-yl)phenyl)piperidine-4-carbonyl)piperidin-4-yl)-6,7-dihydropyrrolo[3,4-f]isoindole-1,3(2H,5H)-dione] | > 0.1
O=C1CCC(N2C(=O)c3cc4c(cc3C2=O)CN(C2CCN(C(=O)C3(F)CCN(c5ccc([C@@H]6c7ccc(O)cc7CC[C@@H]6c6ccccc6)cc5)CC3)CC2)C4)C(=O)N1 (stereo partly drawn) [E 241, 2-(2,6-dioxopiperidin-3-yl)-6-(1-(4-fluoro-1-(4-((1R,2S)-6-hydroxy-2-phenyl-1,2,3,4-tetrahydronaphthalen-1-yl)phenyl)piperidine-4-carbonyl)piperidin-4-yl)-6,7-dihydropyrrolo[3,4-f]isoindole-1,3(2H,5H)-dione] | > 0.1

More lines, now with the values ahead:

DC50 [µM] | Compound
0.01 to 0.1 | C[C@@H]1Cc2c([nH]c3ccccc23)[C@@H](c2c(F)cc(N3CC(C(=O)N4CC(N5Cc6cc7c(cc6C5)C(=O)N(C5CCC(=O)NC5=O)C7=O)C4)C3)cc2F)N1CC(F)F (stereo partly drawn) [E 229, 6-(1-(1-(4-((1R,3R)-2-(2,2-difluoroethyl)-3-methyl-2,3,4,9-tetrahydro-1H-pyrido[3,4-b]indol-1-yl)-3,5-difluorophenyl)azetidine-3-carbonyl)azetidin-3-yl)-2-(2,6-dioxopiperidin-3-yl)-6,7-dihydropyrrolo[3,4-f]isoindole-1,3(2H,5H)-dione]
0.01 to 0.1 | C[C@@H]1Cc2c([nH]c3ccccc23)[C@@H](c2c(F)cc(N3CC(C(=O)N4CC(CN5Cc6cc7c(cc6C5)C(=O)N(C5CCC(=O)NC5=O)C7=O)C4)C3)cc2F)N1CC(F)F (stereo partly drawn) [E 230, 6-((1-(1-(4-((1R,3R)-2-(2,2-difluoroethyl)-3-methyl-2,3,4,9-tetrahydro-1H-pyrido[3,4-b]indol-1-yl)-3,5-difluorophenyl)azetidine-3-carbonyl)azetidin-3-yl)methyl)-2-(2,6-dioxopiperidin-3-yl)-6,7-dihydropyrrolo[3,4-f]isoindole-1,3(2H,5H)-dione]
> 0.1 | C[C@@H]1Cc2c([nH]c3ccccc23)[C@@H](c2c(F)cc(N3CCC4(CCN(CC5Cc6cc7c(cc6C5)C(=O)N(C5CCC(=O)NC5=O)C7=O)CC4)CC3)cc2F)N1CC(F)(F)F (stereo partly drawn) [E 231, 6-((9-(3,5-difluoro-4-((1R,3R)-3-methyl-2-(2,2,2-trifluoroethyl)-2,3,4,9-tetrahydro-1H-pyrido[3,4-b]indol-1-yl)phenyl)-3,9-diazaspiro[5.5]undecan-3-yl)methyl)-2-(2,6-dioxopiperidin-3-yl)-6,7-dihydrocyclopenta[f]isoindole-1,3(2H,5H)-dione]
0.01 to 0.1 | C[C@@H]1Cc2c([nH]c3ccccc23)[C@@H](c2c(F)cc(N3CCC(C(=O)N4CC(CN5Cc6cc7c(cc6C5)C(=O)N(C5CCC(=O)NC5=O)C7=O)C4)CC3)cc2F)N1CC(F)F (stereo partly drawn) [E 234, 6-((1-(1-(4-((1R,3R)-2-(2,2-difluoroethyl)-3-methyl-2,3,4,9-tetrahydro-1H-pyrido[3,4-b]indol-1-yl)-3,5-difluorophenyl)piperidine-4-carbonyl)azetidin-3-yl)methyl)-2-(2,6-dioxopiperidin-3-yl)-6,7-dihydropyrrolo[3,4-f]isoindole-1,3(2H,5H)-dione]
0.01 to 0.1 | CCC(=C(c1ccc(O)cc1)c1ccc(N2CCC3(CC2)CN(C(=O)CN2Cc4cc5c(cc4C2)C(=O)N(C2CCC(=O)NC2=O)C5=O)C3)cc1)c1ccccc1 (stereo not shown) [E 242, 2-(2,6-dioxopiperidin-3-yl)-6-(2-(7-(4-(1-(4-hydroxyphenyl)-2-phenylbut-1-en-1-yl)phenyl)-2,7-diazaspiro[3.5]nonan-2-yl)-2-oxoethyl)-6,7-dihydropyrrolo[3,4-f]isoindole-1,3(2H,5H)-dione]
< 0.01 | C[C@@H]1Cc2c([nH]c3ccccc23)[C@@H](c2c(F)cc(N3CCC(CN4CCC(N5Cc6cc7c(cc6C5)C(=O)N(C5CCC(=O)NC5=O)C7=O)CC4)CC3)cc2F)N1CC(F)F (stereo partly drawn) [E 251, 6-(1-((1-(4-((1R,3R)-2-(2,2-difluoroethyl)-3-methyl-2,3,4,9-tetrahydro-1H-pyrido[3,4-b]indol-1-yl)-3,5-difluorophenyl)piperidin-4-yl)methyl)piperidin-4-yl)-2-(2,6-dioxopiperidin-3-yl)-6,7-dihydropyrrolo[3,4-f]isoindole-1,3(2H,5H)-dione]
< 0.01 | C[C@@H]1Cc2c([nH]c3ccccc23)[C@@H](c2c(F)cc(N3CCC(C(=O)N4CCC(N5Cc6cc7c(cc6C5)C(=O)N(C5CCC(=O)NC5=O)C7=O)CC4)CC3)cc2F)N1CC(C)(F)F (stereo partly drawn) [E 252, 6-(1-(1-(4-((1R,3R)-2-(2,2-difluoropropyl)-3-methyl-2,3,4,9-tetrahydro-1H-pyrido[3,4-b]indol-1-yl)-3,5-difluorophenyl)piperidine-4-carbonyl)piperidin-4-yl)-2-(2,6-dioxopiperidin-3-yl)-6,7-dihydropyrrolo[3,4-f]isoindole-1,3(2H,5H)-dione]
